Experimental findings from PMC7827014, “Synthetic Transition from Thiourea-Based Compounds to Tetrazole Derivatives: Structure and Biological Evaluation of Synthesized New N-(Furan-2-ylmethyl)-1H-tetrazol-5-amine Derivatives” (Molecules, 2021) are described below.

Values after ≈ are worked out from the molar mass of the structure shown. Where two headings read alike, the source gives them in different places.

The term IC50 denotes the concentration at which inhibition is half-maximal.

One experiment relates to P. aeruginosa ATCC 15442. In words: MIC microdilution, standard strain. In kind it is cell-based. Conditions: Pseudomonas aeruginosa, ATCC15442, 18 h. In general terms: Dilution methods test growth across graded concentrations, often in twofold steps.
The test system of a further experiment is S. aureus NCTC 4163. In words: MIC microdilution, standard strain. In kind it is cell-based. As to conditions: Staphylococcus aureus, NCTC4163; S. aureus NCTC 4163, 18 h, 35 °C; read-out: MIC.
A further experiment has as its system E. hirae ATCC 10541. In words: MIC microdilution, standard strain. In kind it is cell-based. As to conditions: Enterococcus hirae, ATCC10541; E. hirae ATCC 10541, 18 h, 35 °C; read-out: MIC.
A further experiment concerns M. tuberculosis H37Rv. In words: In vitro antitubercular MIC. It counts as cell-based. As to conditions: Mycobacterium tuberculosis, read-out: Minimal inhibitory concentration.
Experiment [1] concerns S. epidermidis ATCC 12228. In words: MIC microdilution, standard strain. Conditions: Staphylococcus epidermidis, ATCC12228; S. epidermidis ATCC 12228, 18 h, 35 °C; read-out: MIC. In kind it is cell-based.
Another experiment relates to E. coli ATCC 25922. In words: MIC microdilution, standard strain. It counts as cell-based. Conditions: Escherichia coli, ATCC25922; E. coli ATCC 25922, 18 h, 35 °C; read-out: MIC.
Experiment [2] relates to M. tuberculosis INH susceptible (Spec. 192). The experiment in a line: In vitro antitubercular MIC. It counts as cell-based. As to conditions: Mycobacterium tuberculosis, read-out: Minimal inhibitory concentration.
The subject of another experiment is HTB-140. In words: MTT assay 72 h. As to conditions: Homo sapiens; HTB-140, MTT 72 h, mean ± SD. In kind it is cell-based, human. The procedure:
(§1) The cell viability was assessed by using an enzymatic conversion of 3-(4,5-dimethylthiazol-2-yl)-2,5-diphenyltetrazolium bromide salt (MTT) to insoluble formazan crystals by mitochondrial dehydrogenases, occurring in living cells. Cells were cultured in 96-well plates at a density of l × 10^4 cells per well, and cultured to adhere for 24 h at 37 °C in a CO2 incubator. After 24 h of incubation, culture medium was replaced with a fresh medium, then cells were treated with various concentrations of the compounds and incubated for 72 h at 37 °C in a CO2 incubator. Untreated cells were used as the control. Subsequently, MTT solution (0,5 mg/mL in free-serum medium) was added, and samples were incubated for 4 h at 37 °C in a CO2 incubator. Then, the medium was aspirated, and formed formazan crystals were solubilized by adding an isopropanol-DMSO mixture (1:1 vol). The intensity of the dissolved crystals was measured using a UVM 340 reader (ASYS Hitech GmbH, Austria), at a wavelength of 570 nm. Cell viability was presented as a percent of MTT reduced in treated cells versus control cells (incubated without tested compounds). The relative MTT level (%) was calculated as [A]/[B]×100, where [A] is the absorbance of the test sample, and [B] is the absorbance of the control sample containing the untreated cells. The IC50 value was estimated using CalcuSyn version 1.0. […]
(§2) Antiproliferative activity of tested compounds. Data are given as IC50 [µM] and SI.
(§3) Human immortal keratinocyte cell line from adult human skin (HaCaT), Human colorectal adenocarcinoma (CaCo-2), Human epithelial lung carcinoma cell line (A549) and Human melanoma cell line (HTB-140). Data are expressed as mean ± SD. The SI (Selectivity Index) was calculated for each compound using formula: SI = IC50 for normal cel line / IC50 cancer cel line.
On the technique in general: Tetrazolium dyes change colour on reduction, which living cells bring about.

For the next experiment, the system named is HaCaT. The experiment in a line: MTT assay 72 h. It counts as cell-based, human. Conditions: Homo sapiens; HaCaT normal cells, MTT 72 h, mean ± SD; read-out: IC50. The procedure:
as §1, §2, §3

For a further experiment, the system named is A549. The experiment in a line: MTT assay 72 h. Conditions: Homo sapiens; A549, MTT 72 h, mean ± SD; read-out: IC50. It counts as cell-based, human. The procedure: as §1, §2, §3
For a further experiment, the system named is S. aureus ATCC 29213. In words: MIC microdilution, standard strain. It counts as cell-based. Conditions: Staphylococcus aureus, ATCC29213; S. aureus ATCC 29213, 18 h, 35 °C; read-out: MIC.
In a further experiment the test system is E. coli NCTC 8196. In words: MIC microdilution, standard strain. Conditions: Escherichia coli, NCTC8196; E. coli NCTC 8196, 18 h, 35 °C; read-out: MIC. It counts as cell-based.
The test system of the next experiment is Caco-2. In words: MTT assay 72 h. It counts as cell-based. As to conditions: Homo sapiens; Caco-2, MTT 72 h, mean ± SD; read-out: IC50. As to the method:
as §1, §2, §3

In experiment [3] the test system is S. epidermidis KR 4358/2 840/19. The experiment in a line: MIC microdilution, clinical isolate. In kind it is cell-based. As to conditions: Staphylococcus epidermidis, KR4358/2840/19.
In the next experiment the test system is S. aureus 155/6. The experiment in a line: MIC microdilution, clinical isolate. It counts as cell-based. As to conditions: Staphylococcus aureus.
Experiment [4] concerns S. epidermidis T 5501 851/19. In words: MIC microdilution, clinical isolate. Conditions: Staphylococcus epidermidis, T5501851/19. In kind it is cell-based.
Experiment [5] deals with S. epidermidis T 5399 848/19. In words: MIC microdilution, clinical isolate. As to conditions: Staphylococcus epidermidis, T5399848/19. It counts as cell-based.
The next experiment concerns S. aureus 203/19. The experiment in a line: MIC microdilution, clinical isolate. In kind it is cell-based. Conditions: Staphylococcus aureus.
The subject of experiment [6] is S. epidermidis T 5253 845/19. The experiment in a line: MIC microdilution, clinical isolate. It counts as cell-based. Conditions: Staphylococcus epidermidis, T5253845/19.
In a further experiment the test system is S. aureus T5403/51. The experiment in a line: MIC microdilution, clinical isolate. Conditions: Staphylococcus aureus. It counts as cell-based.
The subject of a further experiment is S. aureus T5595/69. The experiment in a line: MIC microdilution, clinical isolate. It counts as cell-based. Conditions: Staphylococcus aureus.
Experiment [7] deals with S. epidermidis KR 4243 829/19. The experiment in a line: MIC microdilution, clinical isolate. It counts as cell-based. As to conditions: Staphylococcus epidermidis, KR4243829/19.
Experiment [8] has as its system S. epidermidis KR 4047 825/19. In words: MIC microdilution, clinical isolate. It counts as cell-based.
Experiment [9] concerns hospital staphylococcal isolates. The experiment in a line: MIC, panel of clinical staphylococcal isolates. It counts as cell-based. As to the method: (§4) Compounds were screened for their minimal inhibitory concentrations (MICs).
(§5) The antimicrobial assays were conducted using reference strains of bacteria derived from international microbe collections—American Type Culture Collection (ATCC) and National Collection of Type Culture (NCTC). […] The antimicrobial activity of compounds was expressed by minimum inhibitory concentration values (MICs), according to CLCI reference procedures with some modifications. MIC was tested by the two-fold serial microdilution method (in 96-well microtiter plates) on MH II liquid medium. […] The stock solution of tested compounds was prepared in DMSO, and diluted in sterile medium (to a maximum of 1% of solvent content). […] Clinical microorganisms used in this study were obtained from the collection of the Department of Pharmaceutical Microbiology, Medical University of Warsaw, Poland.

The subject of a further experiment is S. aureus T5591/68. The experiment in a line: MIC microdilution, clinical isolate. In kind it is cell-based. Conditions: Staphylococcus aureus.
In experiment [10] the test system is standard bacterial strains. In words: MIC, panel of standard bacterial strains. It counts as cell-based. As to the method: as §4, §5
In experiment [11] the test system is S. epidermidis KR 4268 830/19. In words: MIC microdilution, clinical isolate. It counts as cell-based. As to conditions: Staphylococcus epidermidis, KR4268830/19.
The test system of another experiment is S. aureus T5384/48. In words: MIC microdilution, clinical isolate. As to conditions: Staphylococcus aureus. In kind it is cell-based.
Another experiment deals with S. aureus 176/13. In words: MIC microdilution, clinical isolate. It counts as cell-based. As to conditions: Staphylococcus aureus.
Another experiment has as its system S. aureus T5241/46. In words: MIC microdilution, clinical isolate. In kind it is cell-based. As to conditions: Staphylococcus aureus.
For experiment [12], the system named is S. epidermidis KR 4313 834/19. The experiment in a line: MIC microdilution, clinical isolate. In kind it is cell-based. As to conditions: Staphylococcus epidermidis, KR4313834/19.

As to `Ic1ccc(-n2nnnc2NCc2ccco2)cc1` [Compound 3, N-(furan-2-ylmethyl)-1-(4-iodophenyl)-1H-tetrazol-5-amine], the MIC was 512 µg/mL (≈ 1390 µM) with P. aeruginosa ATCC 15442; 64 µg/mL (≈ 174 µM) in the experiment with S. aureus NCTC 4163; 128 µg/mL (≈ 349 µM) with E. hirae ATCC 10541; greater than 512 µg/mL with M. tuberculosis H37Rv; 128 µg/mL (≈ 349 µM) in [1]; 128 µg/mL (≈ 349 µM) in the experiment with E. coli ATCC 25922. Further, the values for the MIC (in [2]; with S. aureus ATCC 29213; in the experiment on E. coli NCTC 8196) were greater than 512 µg/mL, 64 µg/mL (≈ 174 µM) and 128 µg/mL (≈ 349 µM), respectively. In addition, the IC50 in the experiment on HTB-140, in the experiment on HaCaT, with A549 and in the experiment on Caco-2 was greater than 100 µM each time.

Regarding `Fc1ccccc1-n1nnnc1NCc1ccco1` [Compound 6, 1-(2-fluorophenyl)-N-(furan-2-ylmethyl)-1H-tetrazol-5-amine], the MIC in experiment [3] was 4 µg/mL (≈ 15.4 µM); in the experiment with S. aureus 155/6, 16 µg/mL (≈ 61.7 µM); in experiment [4], 2 µg/mL (≈ 7.71 µM); with S. aureus NCTC 4163 it was 8 µg/mL (≈ 30.9 µM); in experiment [5], 4 µg/mL (≈ 15.4 µM); in the experiment on S. aureus 203/19, 8 µg/mL (≈ 30.9 µM). The MIC with E. hirae ATCC 10541 came to 16 µg/mL (≈ 61.7 µM); in experiment [6], 8 µg/mL (≈ 30.9 µM); against S. aureus T5403/51 it was 8 µg/mL (≈ 30.9 µM); with S. aureus T5595/69 it was 8 µg/mL (≈ 30.9 µM); in the experiment on M. tuberculosis H37Rv it was 512 µg/mL (≈ 1970 µM); in experiment [7], 4 µg/mL (≈ 15.4 µM). The MIC in experiment [8] (Staphylococcus epidermidis, KR4047825/19, clinical isolate S. epidermidis KR 4047 825/19) is 8 µg/mL (≈ 30.9 µM); in experiment [9] (Staphylococcus aureus, rest of studied Staphylococci, except S. aureus 155/6, read-out: MICs), 8 µg/mL (≈ 30.9 µM); in experiment [9] (Staphylococcus epidermidis, four hospital S. epidermidis isolates, read-out: MIC), 4 µg/mL (≈ 15.4 µM); against S. aureus T5591/68, 8 µg/mL (≈ 30.9 µM); in [1], 32 µg/mL (≈ 123 µM); in experiment [10] (some Gram-negative strains), 16 µg/mL (≈ 61.7 µM). The MIC was determined as 8 µg/mL (≈ 30.9 µM) in [11]; 8 µg/mL (≈ 30.9 µM) in the experiment on S. aureus T5384/48; 16 µg/mL (≈ 61.7 µM) with E. coli ATCC 25922; 512 µg/mL (≈ 1970 µM) in experiment [2]; 8 µg/mL (≈ 30.9 µM) against S. aureus 176/13; 8 µg/mL (≈ 30.9 µM) against S. aureus T5241/46. For the same compound, the MIC in the experiment with S. aureus ATCC 29213 was found to be 8 µg/mL (≈ 30.9 µM); in the experiment on E. coli NCTC 8196, 512 µg/mL (≈ 1970 µM); in [12], 4 µg/mL (≈ 15.4 µM). Moreover, the “strength relative to Ciprofloxacin” value in experiment [8] (S. epidermidis KR 4047 825/19 isolate) is recorded as “half of the Ciprofloxacin strength”. The “growth inhibitory strength relative to Ciprofloxacin” value in experiment [9] (two clinical S. epidermidis strains) was 8–16 fold. Moreover, in experiment [10] (standard Staphylococci), the “MIC (range)” value is 8 to 32 µg/mL. The IC50 in the experiment on HTB-140, in the experiment with HaCaT, in the experiment on A549 and in the experiment with Caco-2 was greater than 100 µM in each case.
